Measurements as given in patent US20100158863A1, “TRIAZOLOANILINOPYRIMIDINE DERIVATIVES FOR USE AS ANTIVIRAL AGENTS” (ARROW THERAPEUTICS LIMITED, priority 2006, published 2010).

Tests used:
[1] = molecular target: HCV replicon 1b (Huh-9B); assay: HCV replicon activity, luciferase detection on the replicon plate; type: cell-based, HCV genotype 1b; conditions: Huh-9B replicon cells, luciferase signal
Source text: 1b replicon (Huh.7) described in Science 285, 110-113. • Huh-9B: liver cell line with persistent bicistronic HCV genotype 1b coding sequence: [I3891ucubineo—3-3′_ET] includes firefly luciferase-ubiquitin-neomycin phosphotransferase fusion protein and EMCV-IRES driven non-structural HCV (NS3 to NS5B) coding sequence including cell culture adaptive mutations E1202G, […] and K1846T (Lohmann et al, 2001).
This assay is set up using all 96 wells of flat-bottomed 96-well plates. Plates are set up one day before addition of compounds. The assay then runs for 4 days with ELISA development taking place on the 5th day.
Exponentially growing Huh-9B monolayers are washed with sterile PBS to remove serum and treated with trypsin to detach cells from the flask.
(§1) Cells are suspended in growth media and counted using a haemocytometer. Duplicate 96 well plates are seeded with Huh-9B at a density of 10^4 cells/well in a total volume of 100 μl/well of growth medium without antibiotics as depicted below.
(§2) One of the plates is an opaque white 96-well plate used for IC50 determination based on the luciferase signal (referred as replicon plate), the other one is a clear 96-well plate used for a parallel determination of drug toxicity by methylene blue staining (referred as tox plate). Wells G12 and H12 of the tox plate are left without cells to use as buffer alone background reading.
Plates are then incubated at 37° C. in a 5% CO2 environment for 24 h to obtain a 90% confluent cell monolayer.
(§3) Doubling dilutions of each compound are generated in a separate 96 high volume capacity round bottom plate to twice their initial concentration in the assay using growth medium without antibiotics.
Five compounds (C1 to C5) are tested on each assay plate as illustrated below plus a control compound that is also included in each plate.
(§4) Compounds are tested across an 8 point doubling dilution series. The initial dilution of each compound to be tested is 25 μM and 12.5 μM for the control compound.
DMSO only wells (A1 and A2) at 1% provide the signal corresponding to maximal (100%) luciferase detection. […] The signal from the DMSO wells at 1% (maximal signal) constitutes the assay window.
(§5) For each compound dilution on the 2×96-well dilution plate 100 μl are transferred using a multichannel pipette onto the replicon and tox plates mirror wells which contain […] of medium to obtain the desired final concentration.
Media is tapped out from wells into Virkon and plates are washed once in warm PBS and tapped dry gently.
For each well 20 μl of lysis buffer is added by multichannel pipette. Lysates are stable at this point for several hours.
Luciferase assay buffer is placed it in the luminometer (Lmax, Molecular Devices).
The M injector is primed with 4×300 μl of luciferase assay buffer. The plate to be analyzed is placed in the luminometer and […] of luciferase assay buffer injected automatically into one well followed by 4 seconds integration read out.
After one second delay a second well is injected with 100 μl of luciferase assay buffer followed by 4 seconds integration read out and so forth until all 96 wells are analyzed.
Once the reading is finished the luminometer injection system is washed with deionised water.
The data is acquired using the SOFTmax for Lmax Pro software package.
(§6) SOFTmax data files are exported as Excel or text files. A standard four parameters non-linear regression analysis of the data obtained from each compound is then used to calculate the IC50.
(§7) In the above analysis all replicate wells are meaned. The % of control is then calculated for each concentration point as a percentage of the DMSO control wells.

[2] = tested on: Huh-9B; assay: Toxicity determination on the tox plate by methylene blue staining; type: cell-based; conditions: Huh-9B cells, parallel tox plate
Procedure: as §1, §2, §3, §4, §5
Media is tapped out from wells into Virkon and plates tapped dry gently. To each well 100 μl of 0.5% solution of methylene blue in 50% methanol is added to all wells including blanks (G12 and H12). Plates are left at RT for a minimum of 1 h. Plates are then rinsed gently by immersing in a plastic box with water, tapped dry gently and left open until they are fully dry. Dye is solubilized adding 100 μl of 1% lauroylsarcosine to each well and shaking for 1 h at 37° C. Plates are read on the SpectraMax spectrophotometer at 620 nm wavelength using the SOFTmax Pro software package.
as §6, §7

1-(4-{6-[3-Fluoro-4-(2-methoxy-ethoxy)-phenyl]-quinazolin-4-ylamino}-phenyl)-5-methyl-1H-[1,2,4]triazole-3-carboxylic acid [Example 28]
IC50 [1]: 5 to 20 µM | Replicon TD50 [2]: ** (** >25 μM)

Ic1ccc2ncnc(Nc3ccc(-n4cncn4)cc3)c2c1 [Example 1, (6-Iodo-quinazolin-4-yl)-(4-[1,2,4]triazol-1-yl-phenyl)-amine]
IC50 ([1]; Hepatitis C virus): < 5 µM | Replicon TD50 [2]: * (* <25 μM)

CC(C)(C)c1ccc2ncnc(Nc3ccc(-n4cncn4)cc3)c2c1 [Example 2, (6-tert-Butyl-quinazolin-4-yl)-(4-[1,2,4]triazol-1-yl-phenyl)-amine]
IC50 ([1]; Hepatitis C virus): 5 to 20 µM | Replicon TD50 [2]: ** (** >25 μM)

COc1cc2c(Nc3ccc(-n4cncn4)cc3)ncnc2cc1OCCCCl [Example 3, [7-(3-Chloro-propoxy)-6-methoxy-quinazolin-4-yl]-(4-[1,2,4]triazol-1-yl-phenyl)amine]
IC50 ([1]; Hepatitis C virus): < 5 µM | Replicon TD50 [2]: ** (** >25 μM)

COc1cc2c(Nc3ccc(-n4cncn4)cc3)ncnc2cc1OCCCN1CCOCC1 [Example 4, [6-Methoxy-7-(3-morpholin-4-yl-propoxy)-quinazolin-4-yl]-(4-[1,2,4]triazol-1-yl-phenyl)-amine]
IC50 ([1]; Hepatitis C virus): 5 to 20 µM | Replicon TD50 [2]: ** (** >25 μM)

Fc1ccc(-c2ccc3ncnc(Nc4ccc(-n5cncn5)cc4)c3c2)cc1F [Example 5, [6-(3,4-Difluoro-phenyl)-quinazolin-4-yl]-(4-[1,2,4]triazol-1-yl-phenyl)-amine]
IC50 ([1]; Hepatitis C virus): < 5 µM | Replicon TD50 [2]: ** (** >25 μM)

Fc1cc(-c2ccc3ncnc(Nc4ccc(-n5cncn5)cc4)c3c2)ccc1Cl [Example 6, [6-(4-Chloro-3-fluoro-phenyl)-quinazolin-4-yl]-(4-[1,2,4]triazol-1-yl-phenyl)-amine]
IC50 ([1]; Hepatitis C virus): > 20 µM | Replicon TD50 [2]: ** (** >25 μM)

COc1ccc(-c2ccc3ncnc(Nc4ccc(-n5cncn5)cc4)c3c2)cc1F [Example 7, [6-(3-Fluoro-4-methoxy-phenyl)-quinazolin-4-yl]-(4-[1,2,4]triazol-1-yl-phenyl)-amine]
IC50 ([1]; Hepatitis C virus): < 5 µM | Replicon TD50 [2]: ** (** >25 μM)

CCOc1ccc(-c2ccc3ncnc(Nc4ccc(-n5cncn5)cc4)c3c2)cc1F [Example 8, [6-(4-Ethoxy-3-fluoro-phenyl)-quinazolin-4-yl]-(4-[1,2,4]triazol-1-yl-phenyl)-amine]
IC50 ([1]; Hepatitis C virus): < 5 µM | Replicon TD50 [2]: ** (** >25 μM)

COCCOc1ccc(-c2ccc3ncnc(Nc4ccc(-n5cncn5)cc4)c3c2)cc1F [Example 9, {6-[3-Fluoro-4-(2-methoxy-ethoxy)-phenyl]-quinazolin-4-yl}-(4-[1,2,4]triazol-1-yl-phenyl)-amine]
IC50 ([1]; Hepatitis C virus): < 5 µM | Replicon TD50 [2]: ** (** >25 μM)

CCOc1ccc(-c2ccc3ncnc(Nc4ccc(-n5cncn5)cc4)c3c2)cc1OCC [Example 11, [6-(3,4-Diethoxy-phenyl)-quinazolin-4-yl]-(4-[1,2,4]triazol-1-yl-phenyl)-amine]
IC50 ([1]; Hepatitis C virus): < 5 µM | Replicon TD50 [2]: ** (** >25 μM)

CN(C)CCOc1ccc(-c2ccc3ncnc(Nc4ccc(-n5cncn5)cc4)c3c2)cc1 [Example 12, {6-[4-(2-Dimethylamino-ethoxy)-phenyl]-quinazolin-4-yl}-(4-[1,2,4]triazol-1-yl-phenyl)-amine]
IC50 ([1]; Hepatitis C virus): < 5 µM | Replicon TD50 [2]: * (* <25 μM)

c1cc(COc2ccc(-c3ccc4ncnc(Nc5ccc(-n6cncn6)cc5)c4c3)cc2)ccn1 [Example 13]
IC50 [1]: 5 to 20 µM | Replicon TD50 [2]: * (* <25 μM)

c1nc(Nc2ccc(-n3cncn3)cc2)c2cc(-c3ccc(N4CCOCC4)cc3)ccc2n1 [Example 14]
IC50 [1]: < 5 µM | Replicon TD50 [2]: * (* <25 μM)

c1nc(Nc2ccc(-n3cncn3)cc2)c2cc(-c3ccc4c(c3)OCCO4)ccc2n1 [Example 15, [6-(2,3-Dihydro-benzo[1,4]dioxin-6-yl)-quinazolin-4-yl]-(4-[1,2,4]triazol-1-yl-phenyl)-amine]
IC50 ([1]; Hepatitis C virus): < 5 µM | Replicon TD50 [2]: ** (** >25 μM)

COc1ncc(-c2ccc3ncnc(Nc4ccc(-n5cncn5)cc4)c3c2)cn1 [Example 16, [6-(2-Methoxy-pyrimidin-5-yl)-quinazolin-4-yl]-(4-[1,2,4]triazol-1-yl-phenyl)-amine]
IC50 ([1]; Hepatitis C virus): < 5 µM | Replicon TD50 [2]: ** (** >25 μM)

c1csc(-c2ccc3ncnc(Nc4ccc(-n5cncn5)cc4)c3c2)c1 [Example 17, (6-Thiophen-2-yl-quinazolin-4-yl)-(4-[1,2,4]triazol-1-yl-phenyl)-amine]
IC50 ([1]; Hepatitis C virus): < 5 µM | Replicon TD50 [2]: ** (** >25 μM)

Cc1csc(-c2ccc3ncnc(Nc4ccc(-n5cncn5)cc4)c3c2)c1 [Example 18, [6-(4-Methyl-thiophen-2-yl)-quinazolin-4-yl]-(4-[1,2,4]triazol-1-yl-phenyl)-amine]
IC50 ([1]; Hepatitis C virus): < 5 µM | Replicon TD50 [2]: ** (** >25 μM)

c1coc(-c2ccc3ncnc(Nc4ccc(-n5cncn5)cc4)c3c2)c1 [Example 19]
IC50 [1]: < 5 µM | Replicon TD50 [2]: ** (** >25 μM)

CN(C)CCOc1ccc(-c2ccc3ncnc(Nc4ccc(-n5cncn5)cc4)c3c2)cc1F [Example 20, {6-[4-(2-Dimethylamino-ethoxy)-3-fluoro-phenyl]-quinazoline-4-yl}-(4-[1,2,4]triazole-1-yl-phenyl)amine]
IC50 ([1]; Hepatitis C virus): < 5 µM | Replicon TD50 [2]: * (* <25 μM)

Brc1ccc2ncnc(Nc3ccc(-n4cncn4)cc3)c2c1 [Example 21, (6-Bromo-quinazolin-4-yl)-(4-[1,2,4]triazol-1-yl-phenyl)-amine]
IC50 ([1]; Hepatitis C virus): < 5 µM | Replicon TD50 [2]: ** (** >25 μM)

CN(C)CCN(C)CCOc1ccc(-c2ccc3ncnc(Nc4ccc(-n5cncn5)cc4)c3c2)cc1F [Example 22, N-(2-{2-Fluoro-4-[4-(4-[1,2,4]triazol-1-yl-phenylamino)-quinazolin-6-yl]-phenoxy}-ethyl)-N,N′,N′-trimethyl-ethane-1,2-diamine]
IC50 ([1]; Hepatitis C virus): < 5 µM | Replicon TD50 [2]: * (* <25 μM)

COc1ccc(-c2ccc3ncnc(Nc4ccc(-n5cncn5)cc4)c3c2)cc1OC(C)C [Example 23, [6-(3-Isopropoxy-4-methoxy-phenyl)-quinazolin-4-yl]-(4-[1,2,4]triazol-1-yl-phenyl)-amine]
IC50 ([1]; Hepatitis C virus): < 5 µM | Replicon TD50 [2]: * (* <25 μM)

CC(C)Oc1cc(-c2ccc3ncnc(Nc4ccc(-n5cncn5)cc4)c3c2)ccc1F [Example 24, [6-(4-Fluoro-3-isopropoxy-phenyl)-quinazolin-4-yl]-(4-[1,2,4]triazol-1-yl-phenyl)-amine]
IC50 ([1]; Hepatitis C virus): < 5 µM | Replicon TD50 [2]: ** (** >25 μM)

Fc1cc(-c2ccc3ncnc(Nc4ccc(-n5cncn5)cc4)c3c2)ccc1OCCCN1CCCC1 [Example 25, {6-[3 fluoro-4-(3-pyrrolidin-1-yl-propoxy)-phenyl]-quinazoline-4-yl}-(4-[1,2,4]triazole-1-yl-phenyl)amine]
IC50 ([1]; Hepatitis C virus): < 5 µM | Replicon TD50 [2]: * (* <25 μM)

Fc1cc(-c2ccc3ncnc(Nc4ccc(-n5cncn5)cc4)c3c2)ccc1OCCCN1CCOCC1 [Example 26, {6-[3-fluoro-4-(3-morpholin-4-yl-propoxy)-phenyl]-quinazoline-4-yl}-(4-[1,2,4]triazole-1-yl-phenyl)amine]
IC50 ([1]; Hepatitis C virus): < 5 µM | Replicon TD50 [2]: * (* <25 μM)

COc1ccc(-c2ccc3ncnc(Nc4ccc(-n5cncn5)cc4C)c3c2)cc1OC [Example 27, [6-(3,4-Dimethoxy-phenyl)-quinazolin-4-yl]-(2-methyl-4-[1,2,4]triazol-1-yl-phenyl)-amine]
IC50 ([1]; Hepatitis C virus): < 5 µM | Replicon TD50 [2]: * (* <25 μM)
